Measurements from patent US20120029187A1, “HALOALKYLSULFONANILIDE DERIVATIVE” (Nissan Chemical Industries, Ltd., priority 2009, published 2012).

Tests used:
Format in all cases: in vivo
redroot pigweed [1] = test: Test Example 3: herbicidal effects in soil treatment; settings: dose 3.2 g/a
Procedure, shortened: (§1)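 Seeds were sown in sterilized diluvial soil and covered with about 1.5 cm of soil. Compounds, formulated as emulsifiable concentrates and diluted with water, were sprayed evenly over the soil surface at set doses in g/a. Herbicidal effect was scored on a rating scale three weeks later.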

posumbu knotweed [2] = test: as above; settings: dose 3.2 g/a
Procedure, shortened: as §1

giant foxtail [3] = test: as above; settings: dose 3.2 g/a
Procedure, shortened: as §1

common chickweed [4] = test: as above; settings: dose 3.2 g/a
Procedure, shortened: as §1

common lambsquater [5] = test: as above; settings: dose 3.2 g/a
Procedure, shortened: as §1

large crabgrass [6] = test: as above; settings: dose 3.2 g/a
Procedure, shortened: as §1

velvetleaf [7] = test: as above; settings: dose 3.2 g/a
Procedure, shortened: as §1

Italian ryegrass [8] = test: as above; settings: dose 3.2 g/a
Procedure, shortened: as §1

common ragweed [9] = test: as above; settings: dose 3.2 g/a
Procedure, shortened: as §1

barnyardgrass [10] = test: as above; settings: dose 3.2 g/a
Procedure, shortened: as §1

water foxtail [11] = test: as above; settings: dose 3.2 g/a
Procedure, shortened: as §1

redroot pigweed [12] = test: Test Example 4: herbicidal effect in foliage treatment; settings: dose 3.2 g/a, three weeks after application
Procedure, shortened: (§2)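 Weeds and crops sown in sterilized diluvial soil under ~1.5 cm cover and grown in greenhouse at 25 to 30° C. At 14 days, water-diluted emulsifiable concentrate sprayed onto foliage at set doses (g/a); herbicidal effect scored on a rating scale three weeks after application.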

posumbu knotweed [13] = test: as above; settings: dose 3.2 g/a, three weeks after application
Procedure, shortened: as §2

giant foxtail [14] = test: as above; settings: dose 3.2 g/a, three weeks after application
Procedure, shortened: as §2

common chickweed [15] = test: as above; settings: dose 3.2 g/a, three weeks after application
Procedure, shortened: as §2

common lambsquater [16] = test: as above; settings: dose 3.2 g/a, three weeks after application
Procedure, shortened: as §2

large crabgrass [17] = test: as above; settings: dose 3.2 g/a, three weeks after application
Procedure, shortened: as §2

velvetleaf [18] = test: as above; settings: dose 3.2 g/a, three weeks after application
Procedure, shortened: as §2

Italian ryegrass [19] = test: as above; settings: dose 3.2 g/a, three weeks after application
Procedure, shortened: as §2

common ragweed [20] = test: as above; settings: dose 3.2 g/a, three weeks after application
Procedure, shortened: as §2

barnyardgrass [21] = test: as above; settings: dose 3.2 g/a, three weeks after application
Procedure, shortened: as §2

beadstraw = test: as above; settings: dose 3.2 g/a, three weeks after application
Procedure, shortened: as §2

water foxtail [22] = test: as above; settings: dose 3.2 g/a, three weeks after application
Procedure, shortened: as §2

bulrush [23] = test: Test Example 2: herbicidal effects during the vegetation period under submerged conditions; settings: treatment during the vegetation period under submerged conditions; dose 2.52 g/a
Procedure, shortened: (§3)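 Barnyardgrass, bulrush and ducksalad were co-sown in alluvial soil flooded to 4 cm and grown in a greenhouse at 25 to 30° C. At the 1- or 2-leaf stage, water-diluted emulsifiable concentrates went onto the water surface at set doses (g/a). Herbicidal effect was scored three weeks later on a graded scale.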

barnyardgrass [24] = test: as above; settings: treatment during the vegetation period under submerged conditions; dose 2.52 g/a
Procedure, shortened: as §3

ducksalad [25] = test: as above; settings: treatment during the vegetation period under submerged conditions; dose 2.52 g/a
Procedure, shortened: as §3

transplanted rice = test: Test Example 1: preemergence treatment under submerged conditions, effect on crop; settings: dose 2.52 g/a
Procedure, shortened: (§4)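 Score 0–5 by mortality (5: ≥90%; 0: <5%), read 3 weeks post-application. Paddy-type cups: alluvial soil under 4 cm water, weeds seeded plus transplanted 2.5-leaf rice; diluted EC dosed onto water surface same day as sowing, g/a basis; greenhouse 25 to 30° C.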

bulrush [26] = test: Test Example 1: herbicidal effects in preemergence treatment under submerged conditions; settings: dose 2.52 g/a
Procedure, shortened: as §4

barnyardgrass [27] = test: as above; settings: dose 2.52 g/a
Procedure, shortened: as §4

ducksalad [28] = test: as above; settings: dose 2.52 g/a
Procedure, shortened: as §4

Structure (SMILES)	K: redroot pigweed, herbicidal effect (evaluation scale 0-5) (redroot pigweed [1])	M: posumbu knotweed, herbicidal effect (evaluation scale 0-5) (posumbu knotweed [2])	E: giant foxtail, herbicidal effect (evaluation scale 0-5) (giant foxtail [3])	N: common chickweed, herbicidal effect (evaluation scale 0-5) (common chickweed [4])	L: common lambsquater, herbicidal effect (evaluation scale 0-5) (common lambsquater [5])	D: large crabgrass, herbicidal effect (evaluation scale 0-5) (large crabgrass [6])	I: velvetleaf, herbicidal effect (evaluation scale 0-5) (velvetleaf [7])	H: Italian ryegrass, herbicidal effect (evaluation scale 0-5) (Italian ryegrass [8])	J: common ragweed, herbicidal effect (evaluation scale 0-5) (common ragweed [9])	A: barnyardgrass, herbicidal effect (evaluation scale 0-5) (barnyardgrass [10])	G: water foxtail, herbicidal effect (evaluation scale 0-5) (water foxtail [11])	K: redroot pigweed, herbicidal effect (redroot pigweed [12])	M: posumbu knotweed, herbicidal effect (posumbu knotweed [13])	E: giant foxtail, herbicidal effect (giant foxtail [14])	N: common chickweed, herbicidal effect (common chickweed [15])	L: common lambsquater, herbicidal effect (common lambsquater [16])	D: large crabgrass, herbicidal effect (large crabgrass [17])	I: velvetleaf, herbicidal effect (velvetleaf [18])	H: Italian ryegrass, herbicidal effect (Italian ryegrass [19])	J: common ragweed, herbicidal effect (common ragweed [20])	also measured
CCOC(=O)N(c1ccccc1CN1COC(C)(C(F)(F)F)CC1=O)S(=O)(=O)C(F)(F)F (stereo not drawn) [II-49]	0 (mortality of less than 5% (almost ineffective))	4 (mortality of at least 70% and less than 90%)	3 (mortality of at least 40% and less than 70%)	4 (mortality of at least 70% and less than 90%)	2 (mortality of at least 20% and less than 40%)	3 (mortality of at least 40% and less than 70%)	0 (mortality of less than 5% (almost ineffective))	3 (mortality of at least 40% and less than 70%)	4 (mortality of at least 70% and less than 90%)	3 (mortality of at least 40% and less than 70%)	5 (mortality of 90% or above (nearly complete death))	0 (mortality of less than 5% (almost ineffective))	3 (mortality of at least 40% and less than 70%)	3 (mortality of at least 40% and less than 70%)	3 (mortality of at least 40% and less than 70%)	3 (mortality of at least 40% and less than 70%)	0 (mortality of less than 5% (almost ineffective))	0 (mortality of less than 5% (almost ineffective))	0 (mortality of less than 5% (almost ineffective))	3 (mortality of at least 40% and less than 70%)	A: barnyardgrass, herbicidal effect (barnyardgrass [21]): 4 (mortality of at least 70% and less than 90%); O: beadstraw, herbicidal effect (beadstraw): 4 (mortality of at least 70% and less than 90%); G: water foxtail, herbicidal effect (water foxtail [22]): 3 (mortality of at least 40% and less than 70%); B: bulrush, herbicidal effect (evaluation scale 0-5) (bulrush [23]): 5 (mortality of 90% or above (nearly complete death)); A: barnyardgrass, herbicidal effect (evaluation scale 0-5) (barnyardgrass [24]): 5 (mortality of 90% or above (nearly complete death)); C: ducksalad, herbicidal effect (evaluation scale 0-5) (ducksalad [25]): 5 (mortality of 90% or above (nearly complete death)); a: transplanted rice, effect on crop (evaluation scale 0-5) (transplanted rice): 0 (mortality of less than 5% (almost ineffective)); B: bulrush, herbicidal effect (evaluation scale 0-5) (bulrush [26]): 5 (mortality of 90% or above (nearly complete death)); A: barnyardgrass, herbicidal effect (evaluation scale 0-5) (barnyardgrass [27]): 5 (mortality of 90% or above (nearly complete death)); C: ducksalad, herbicidal effect (evaluation scale 0-5) (ducksalad [28]): 5 (mortality of 90% or above (nearly complete death))
CC1(CC(F)(F)F)CC(=O)N(Cc2ccccc2NS(=O)(=O)C(F)(F)F)CO1 (stereo not drawn) [II-51]	0 (mortality of less than 5% (almost ineffective))	5 (mortality of 90% or above (nearly complete death))	4 (mortality of at least 70% and less than 90%)	5 (mortality of 90% or above (nearly complete death))	0 (mortality of less than 5% (almost ineffective))	5 (mortality of 90% or above (nearly complete death))	5 (mortality of 90% or above (nearly complete death))	3 (mortality of at least 40% and less than 70%)	4 (mortality of at least 70% and less than 90%)	5 (mortality of 90% or above (nearly complete death))	5 (mortality of 90% or above (nearly complete death))	0 (mortality of less than 5% (almost ineffective))	5 (mortality of 90% or above (nearly complete death))	4 (mortality of at least 70% and less than 90%)	5 (mortality of 90% or above (nearly complete death))	3 (mortality of at least 40% and less than 70%)	4 (mortality of at least 70% and less than 90%)	4 (mortality of at least 70% and less than 90%)	3 (mortality of at least 40% and less than 70%)	3 (mortality of at least 40% and less than 70%)	A: barnyardgrass, herbicidal effect (barnyardgrass [21]): 5 (mortality of 90% or above (nearly complete death)); O: beadstraw, herbicidal effect (beadstraw): 4 (mortality of at least 70% and less than 90%); G: water foxtail, herbicidal effect (water foxtail [22]): 5 (mortality of 90% or above (nearly complete death)); B: bulrush, herbicidal effect (evaluation scale 0-5) (bulrush [23]): 4 (mortality of at least 70% and less than 90%); A: barnyardgrass, herbicidal effect (evaluation scale 0-5) (barnyardgrass [24]): 5 (mortality of 90% or above (nearly complete death)); C: ducksalad, herbicidal effect (evaluation scale 0-5) (ducksalad [25]): 5 (mortality of 90% or above (nearly complete death)); a: transplanted rice, effect on crop (evaluation scale 0-5) (transplanted rice): 0 (mortality of less than 5% (almost ineffective)); B: bulrush, herbicidal effect (evaluation scale 0-5) (bulrush [26]): 5 (mortality of 90% or above (nearly complete death)); A: barnyardgrass, herbicidal effect (evaluation scale 0-5) (barnyardgrass [27]): 5 (mortality of 90% or above (nearly complete death)); C: ducksalad, herbicidal effect (evaluation scale 0-5) (ducksalad [28]): 5 (mortality of 90% or above (nearly complete death))
